Assay results reported in patent US11001561B2, “Pyrimidinone derivatives as SHP2 antagonists” (MERCK PATENT GMBH, priority 2019, dated 2021).
Counter-ions that a name gives are not always drawn.

These compounds were tested against Full length SHP2 protein (Recombinant Human SHP-2) (Homo sapiens (Human), UniProt Q06124) (assay: SHP2 biochemical assay (DiFMUP substrate, activating peptide IRSI_2pY)). Details: SHP-2 biochemical assay IC50 (μM), activating peptide IRSI_2pY 140 nM, DiFMUP, 60 min.
Chain of Full length SHP2 protein (Recombinant Human SHP-2) (Q06124 2-593): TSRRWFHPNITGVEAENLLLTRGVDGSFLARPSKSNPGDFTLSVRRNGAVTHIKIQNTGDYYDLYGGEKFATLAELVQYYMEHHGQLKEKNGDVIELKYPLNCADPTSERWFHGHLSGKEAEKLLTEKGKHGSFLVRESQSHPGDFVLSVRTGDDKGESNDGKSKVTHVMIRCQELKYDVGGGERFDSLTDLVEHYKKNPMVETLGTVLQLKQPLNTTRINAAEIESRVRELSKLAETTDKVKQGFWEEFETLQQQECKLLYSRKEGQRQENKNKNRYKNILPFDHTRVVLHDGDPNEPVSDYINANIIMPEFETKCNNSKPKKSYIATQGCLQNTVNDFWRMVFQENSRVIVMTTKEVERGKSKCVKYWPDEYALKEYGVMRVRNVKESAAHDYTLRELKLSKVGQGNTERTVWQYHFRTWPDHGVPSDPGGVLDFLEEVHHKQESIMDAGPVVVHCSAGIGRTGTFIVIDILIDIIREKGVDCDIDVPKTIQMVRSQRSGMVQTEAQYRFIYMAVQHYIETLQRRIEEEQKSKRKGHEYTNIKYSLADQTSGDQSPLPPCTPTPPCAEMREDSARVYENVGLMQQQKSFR
Protocol: The inhibition of SHP2 by compounds of the invention was monitored using the surrogate substrate DiFMUP after protein activation by a peptide bearing two appropriately spaced phosphotyrosine. […] The generation of the DiFMU product by activated SHP2 was monitored through Fluorescence measurement with a PerkinElmer Envision reader. The inhibitor dose response curves were analyzed with Genedata Screener.

Compound | IC50
Cc1nc(N(C)[C@H]2CC[C@@](C)(N)CC2)cc(=O)n1-c1cccc(Cl)c1Cl (single isomer, unassigned) [Compound 71b, 3-(2,3-dichlorophenyl)-2-methyl-6-{methyl[(cis)-4-amino-4-methylcyclohexyl]amino}-3,4-dihydropyrimidin-4-one] | 20 µM
Cc1c(N[C@H]2CC[C@@H](N)CC2)ncn(-c2cccc(Cl)c2Cl)c1=O [Compound 85, 6-(4-Amino-cyclohexylamino)-3-(2,3-dichloro-phenyl)-5-methyl-3H-pyrimidin-4-one] | > 10 µM
Cc1c(N2CCC3(CC2)Oc2ccccc2[C@H]3N)nc(C)n(-c2cccc(Cl)c2Cl)c1=O (single isomer, unassigned) [Compound 81a] | 0.47 µM
Cc1nc(N2CCC(C)(N3CC[C@H](O)C3)CC2)cc(=O)n1-c1cccc(Cl)c1Cl (racemic) [Compound 72b, (+/−)-(3M)-3-(2,3-dichlorophenyl)-6-{4-[(3R)-3-hydroxy-pyrrolidin-1-yl]-4-methylpiperidin-1-yl}-2-methyl-3,4-dihydropyrimidin-4-one] | 6.4 µM
Cc1nc(N2CCC3(CC2)CO[C@@H](C)[C@H]3N)nc(=O)n1-c1cccc(Cl)c1Cl (single isomer, unassigned) [Compound 37b] | > 10 µM

Same assay, conditions: activating peptide IRSI_2pY 140 nM, DiFMUP, 60 min; read-out: SHP-2 biochemical assay IC50

IC50 | Compound
4.3 µM | Cc1nc(N2CCC3(CC2)CC3CN)cc(=O)n1-c1cccc(Cl)c1Cl (stereo not shown) [Compound 13, 6-[1-(aminomethyl)-6-azaspiro[2.5]octan-6-yl]-3-(2,3-dichlorophenyl)-2-methyl-3,4-dihydropyrimidin-4-one]
> 10 µM | Cc1c(N2CCc3cccc(N)c3C2)nc(C)n(-c2cccc(Cl)c2Cl)c1=O [Compound 51, 6-(8-amino-1,2,3,4-tetrahydroisoquinolin-2-yl)-3-(2,3-dichlorophenyl)-2,5-dimethyl-3,4-dihydropyrimidin-4-one]
3 µM | CC1(CN)CCN(c2cc(=O)n(-c3cccc(Cl)c3Cl)c(C(F)F)n2)CC1 [Compound 17, 6-[4-(aminomethyl)-4-methylpiperidin-1-yl]-3-(2,3-dichlorophenyl)-2-(difluoromethyl)-3,4-dihydropyrimidin-4-one]
> 10 µM | Cc1c(N2CCC3(CC2)CO[C@@H](C)[C@H]3N)nc(C)n(-c2cccc3ncsc23)c1=O [Compound 84, 6-((3S,4S)-4-Amino-3-methyl-2-oxa-8-aza-spiro[4.5]dec-8-yl)-3-benzothiazol-7-yl-2,5-dimethyl-3H-pyrimidin-4-one]
1.4 µM | Cc1c(N2CCC(C)(CN)CC2)nc(N)n(-c2cccc(Cl)c2Cl)c1=O [Compound 114, 2-Amino-6-(4-aminomethyl-4-methyl-piperidin-1-yl)-3-(2,3-dichloro-phenyl)-5-methyl-3H-pyrimidin-4-one]
2.1 µM | Cc1nc(N2CCC(N)(C(N)=O)CC2)cc(=O)n1-c1cccc(Cl)c1Cl [Compound 22, 4-amino-1-[1-(2,3-dichlorophenyl)-2-methyl-6-oxo-1,6-dihydropyrimidin-4-yl]piperidine-4-carboxamide]
0.27 µM | Cc1nc(N2CCC3(CC2)Cc2ccccc2[C@H]3N)cc(=O)n1-c1cccc(Cl)c1Cl (single isomer, unassigned) [Compound 119a]
10 µM | Cc1nc(N2CC3CC4CC(C4(C)C)C3(CN)C2)cc(=O)n1-c1cccc(Cl)c1Cl (stereo not shown) [Compound 60, 6-[2-(aminomethyl)-9,9-dimethyl-4-azatricyclo[6.1.1.0^2,6]decan-4-yl]-3-(2,3-dichlorophenyl)-2-methyl-3,4-dihydropyrimidin-4-one]
5.8 µM | Cc1c(N2CCN3CC(N)CC3C2)nc(C)n(-c2cccc(Cl)c2Cl)c1=O (stereo not shown) [Compound 100, (3M)-6-7-amino-octahydropyrrolo[1,2-a]pyrazin-2-yl-3-(2,3-dichlorophenyl)-2,5-dimethyl-3,4-dihydropyrimidin-4-one]
6.6 µM | Cc1nc(N2CC3CCCC3(CN)C2)cc(=O)n1-c1cccc(Cl)c1Cl (stereo not shown) [Compound 14, 6-[3a-(aminomethyl)-octahydrocyclopenta[c]pyrrol-2-yl]-3-(2,3-dichlorophenyl)-2-methyl-3,4-dihydropyrimidin-4-one]
> 10 µM | COCC(O)CNC1CCN(c2cc(=O)n(-c3cccc(Cl)c3Cl)c(C)n2)CC1 (stereo not shown) [Compound 46, 3-(2,3-dichlorophenyl)-6-{4-[(2-hydroxy-3-methoxypropyl)-amino]piperidin-1-yl}-2-methyl-3,4-dihydropyrimidin-4-one]
3.8 µM | CC1(N)CCN(c2cc(=O)n(-c3cccc(Cl)c3Cl)c(C(F)F)n2)CC1 [Compound 11, 6-(4-amino-4-methylpiperidin-1-yl)-3-(2,3-dichlorophenyl)-2-(difluoromethyl)-3,4-dihydropyrimidin-4-one]
5.6 µM | Cc1c(N2CCC(C)(CN)CC2)nc(C)n(-c2ccc3ccccc3c2Cl)c1=O [Compound 54, 6-(4-Aminomethyl-4-methyl-piperidin-1-yl)-3-(1-chloro-naphthalen-2-yl)-2,5-dimethyl-3H-pyrimidin-4-one]
18 µM | Cc1c(N2CCC(C)(N)CC2)nc(C)n(-c2ccc3ccccc3c2Cl)c1=O [Compound 48, 6-(4-Amino-4-methyl-piperidin-1-yl)-3-(1-chloro-naphthalen-2-yl)-2,5-dimethyl-3H-pyrimidin-4-one]
2.6 µM | Cc1nc(N2C[C@H]3CC(O)C[C@@]3(CN)C2)cc(=O)n1-c1cccc(Cl)c1Cl (stereo partly drawn) [Compound 59, 6-[(3aR,6aS)-3a-(aminomethyl)-5-hydroxy-octahydrocyclopenta[c]pyrrol-2-yl]-3-(2,3-dichlorophenyl)-2-methyl-3,4-dihydropyrimidin-4-one]
5 µM | CCc1c(N2CCC3(CC2)CO[C@@H](C)[C@H]3N)nc(C)n(-c2cccc(Cl)c2Cl)c1=O [Compound 36, 6-[(3S,4S)-4-amino-3-methyl-2-oxa-8-azaspiro[4.5]decan-8-yl]-3-(2,3-dichlorophenyl)-5-ethyl-2-methyl-3,4-dihydropyrimidin-4-one]
3.9 µM | Cc1c(N2CCCC3(CCC3N)C2)nc(C)n(-c2cccc(Cl)c2Cl)c1=O (stereo not shown) [Compound 90, 6-1-amino-6-azaspiro[3.5]nonan-6-yl-3-(2,3-dichlorophenyl)-2,5-dimethyl-3,4-dihydropyrimidin-4-one]
0.26 µM | Cc1nc(N2CCC(C)(CN)CC2)cc(=O)n1-c1cccc(Cl)c1Cl [Compound 4, 6-[4-(aminomethyl)-4-methylpiperidin-1-yl]-3-(2,3-dichlorophenyl)-2-methyl-3,4-dihydropyrimidin-4-one]
0.5 µM | COc1ccc(-n2c(C)nc(N3CCC4(CC3)CO[C@@H](C)[C@H]4N)c(C)c2=O)c(Cl)c1Cl [Compound 98, 6-((3S,4S)-4-Amino-3-methyl-2-oxa-8-aza-spiro[4.5]dec-8-yl)-3-(2,3-dichloro-4-methoxy-phenyl)-2,5-dimethyl-3H-pyrimidin-4-one]
4.3 µM | Cc1nc(N2CCC(NC[C@H](O)CO)CC2)cc(=O)n1-c1cccc(Cl)c1Cl [Compound 42, 3-(2,3-dichlorophenyl)-6-(4-{[(2S)-2,3-dihydroxypropyl]amino}-piperidin-1-yl)-2-methyl-3,4-dihydropyrimidin-4-one]
1.6 µM | Cc1nc(N2CCCC(C)(N)CC2)cc(=O)n1-c1cccc(Cl)c1Cl (stereo not shown) [Compound 21, 6-(4-amino-4-methylazepan-1-yl)-3-(2,3-dichlorophenyl)-2-methyl-3,4-dihydropyrimidin-4-one hydrochloride]
2 µM | Cc1c(N2CCCC(CN)CC2)nc(C)n(-c2cccc(Cl)c2Cl)c1=O (stereo not shown) [Compound 91, 6-[4-(aminomethyl)azepan-1-yl]-3-(2,3-dichlorophenyl)-2,5-dimethyl-3,4-dihydropyrimidin-4-one]
0.56 µM | CNC1(C)CCN(c2cc(=O)n(-c3cccc(Cl)c3Cl)c(C)n2)CC1 [Compound 31, 3-(2,3-dichlorophenyl)-2-methyl-6-[4-methyl-4-(methylamino)piperidin-1-yl]-3,4-dihydropyrimidin-4-one]
16 µM | Cc1c(N2CCO[C@H](CN)C2)nc(C)n(-c2cccc(Cl)c2Cl)c1=O [Compound 92, 6-[(2R)-2-(aminomethyl)morpholin-4-yl]-3-(2,3-dichlorophenyl)-2,5-dimethyl-3,4-dihydropyrimidin-4-one]
6.1 µM | Cc1c(N2CCC3(CC2)CO[C@@H](C)[C@H]3N)nc(C)n(-c2ccc3nccnc3c2)c1=O [Compound 53, 6-((3S,4S)-4-Amino-3-methyl-2-oxa-8-aza-spiro[4.5]dec-8-yl)-2,5-dimethyl-3-quinoxalin-6-yl-3H-pyrimidin-4-one]
4.6 µM | Cc1c(N2CCC3(CC2)CC3CN)nc(C)n(-c2cccc(Cl)c2Cl)c1=O (stereo not shown) [Compound 86, 6-[1-(aminomethyl)-6-azaspiro[2.5]octan-6-yl]-3-(2,3-dichlorophenyl)-2,5-dimethyl-3,4-dihydropyrimidin-4-one]

Compound | IC50
Cc1nc(N2CCC3(CC2)CO[C@@H](C)[C@H]3N)cc(=O)n1-c1c(F)ccc(Cl)c1Cl (single isomer, unassigned) [Compound 32a] | > 10 µM
Cc1c(N2CCC3(CC2)Oc2cnccc2[C@@H]3N)nc(C)n(-c2cccc(Cl)c2Cl)c1=O (single isomer, unassigned) [Compound 80d] | 1.4 µM
Cc1nc(N2CCC3(CC2)CO[C@@H](C)[C@H]3N)c(CCO)c(=O)n1-c1cccc(Cl)c1Cl [Compound 76, 6-[(3S,4S)-4-amino-3-methyl-2-oxa-8-azaspiro[4.5]decan-8-yl]-3-(2,3-dichlorophenyl)-5-(2-hydroxyethyl)-2-methyl-3,4-dihydropyrimidin-4-one Hydrochloride] | 7 µM
Cc1nc(N2CCC3(CCC[C@H]3N)CC2)cc(=O)n1-c1cccc(Cl)c1Cl (single isomer, unassigned) [Compound 62a] | > 10 µM
Cc1nc(N2CC3CCC(C2)N3)cc(=O)n1-c1cccc(Cl)c1Cl [Compound 56, 6-3,8-diazabicyclo[3.2.1]octan-3-yl-3-(2,3-dichlorophenyl)-2-methyl-3,4-dihydropyrimidin-4-one] | 5.2 µM
Cc1c(N2CCC3(CCC[C@@H]3N)CC2)nc(N)n(-c2cccc(Cl)c2Cl)c1=O (single isomer, unassigned) [Compound 78a] | > 50 µM
